We go through 13 compounds from US6664286B1, “Serotonergic 5ht2 agonists for treating glaucoma” (Alcon Manufacturing, Ltd., priority 1998, dated 2003).

Like-named read-outs stand apart in the source and are kept apart here.

The subject of data set [1] is human subjects. As to conditions: cited from earlier work.
Data set [2] relates to rabbit eye. The conditions noted are these: cited from earlier work.
The subject of data set [3] is lasered (hypertensive) eyes of conscious cynomolgus monkeys. In words: Acute IOP Response in Lasered (Hypertensive) Eyes of Conscious Cynomolgus Monkeys. The format is in vivo, cynomolgus monkey. The conditions noted are these: topical, one 30 μL aliquot, dose (R)-DOI 100 μg, α-methylserotonin 250 μg, 5-methoxy-α-methyltryptamine 300 μg, serotonin 250 μg. How it is done:
Acute IOP Response in Lasered (Hypertensive) Eyes of Conscious Cynomolgus Monkeys
Intraocular pressure (IOP) was determined with an Alcon Pneumatonometer after light corneal anesthesia with 0.1% proparacaine. Eyes were washed with saline after each measurement. After a baseline IOP measurement, test compound was instilled in one 30 μL aliquot to the right eyes only of nine cynomolgus monkeys. Vehicle was instilled in the right eyes of six additional animals. Subsequent IOP measurements were taken at 1, 3, and 6 hours.

For data set [4], the target named is 5HT2 receptor (Rattus norvegicus, UniProt P14842). In words: cell-based. How it is done:
Confluent cells are exposed for 24-30 hrs to 1.5 μCi [^3H]-myo-inositol (18.3 Ci/mmol) in 0.5 ml of serum-free medium. Cells are then rinsed once with DMEM/F-12 containing 10 mM LiCl prior to incubation with the test agent (or solvent as the control) in 1.0 ml of the same medium for 1 hr at 37° C., after which the medium is aspirated and 1 ml of cold 0.1 M formic acid added to stop the reaction. […] The eluate (4 ml) is collected, mixed with 15 ml scintillation fluid, and the total [^3H]-IPs determined by scintillation counting on a beta-counter.

For data set [5] the following is noted: man, dosed systemically; cited from earlier work.
Data set [6] concerns glaucomatous monkeys. As to conditions: cited from earlier work.
The test system of data set [7] is 5HT2 receptor subtypes. The conditions noted are these: 5HT2 agonist, rank order of subtypes; cited from earlier work.
Setting [8] is: rabbit, administered intracamerally.

Chain of 5HT2 receptor (P14842 whole entry): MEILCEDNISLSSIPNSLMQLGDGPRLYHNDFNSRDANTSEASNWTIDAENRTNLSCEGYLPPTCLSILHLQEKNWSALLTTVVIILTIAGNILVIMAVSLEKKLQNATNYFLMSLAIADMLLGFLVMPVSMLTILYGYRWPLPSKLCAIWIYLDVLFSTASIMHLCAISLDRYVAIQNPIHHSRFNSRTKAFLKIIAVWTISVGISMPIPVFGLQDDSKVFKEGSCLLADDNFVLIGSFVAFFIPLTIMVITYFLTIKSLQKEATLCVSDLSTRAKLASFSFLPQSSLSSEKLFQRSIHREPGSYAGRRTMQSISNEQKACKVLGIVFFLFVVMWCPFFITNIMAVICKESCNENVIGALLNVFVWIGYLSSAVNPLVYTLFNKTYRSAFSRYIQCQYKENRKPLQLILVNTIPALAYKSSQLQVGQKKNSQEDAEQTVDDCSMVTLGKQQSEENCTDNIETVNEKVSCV

With `O=C(c1ccc(F)cc1)C1CCN(CCn2c(=O)[nH]c3ccccc3c2=O)CC1` [Ketanserin], the “effect on IOP” value in data set [1] (man, route not stated) was “lowers IOP”; in data set [2] (rabbits, route not stated), “lowers IOP”.
For the compound `COc1cc(C[C@@H](C)N)c(OC)cc1I` [(R)-DOI, (R)4-iodo-2,5 dimethoxy-α-methyl-benzeneethanamine], in data set [3], the “Percent IOP Reduction ± SEM, 1 hour after dose” value is on record as 11.0 ± 4.98%; the “Percent IOP Reduction ± SEM, 3 hours after dose” value is given as 25.3 ± 2.97%; the “Percent IOP Reduction ± SEM, 6 hours after dose” value is given as 34.4 ± 4.98%. Besides, in data set [4], the EC50 (as a rule, the concentration giving half of the maximal effect) turned out to be 277 ± 35 nM.
For the compound `NCCc1c[nH]c2ccc(C(N)=O)cc12` [5-carboxamidotryptamine], in data set [2] (rabbit, topically applied), the “effect on intraocular pressure (IOP)” value is “raise intraocular pressure”.
For the compound `COc1cc(CC(C)N)c(OC)cc1I` (stereo not shown) [DOI], the CNS side effects entry in data set [5] was “cause central nervous system (CNS) side effects”.
In the case of `COc1ccccc1N1CCN(CCCNc2c(C)c(=O)n(C)c(=O)n2C)CC1` [5-methylurapidil], the “effect on IOP” value in data set [6] is “lowered IOP”.
`NCCc1c[nH]c2ccc(O)cc12` [Serotonin, 5-hydroxytryptamine]: in data set [3], the “Percent IOP Reduction ± SEM, 1 hour after dose” value was 13.3 ± 5.31%; the “Percent IOP Reduction ± SEM, 3 hours after dose” value came to 18.0 ± 5.12%; the “Percent IOP Reduction ± SEM, 6 hours after dose” value came to 2.0 ± 7.39%. In data set [2] (setting [8]), the blood-aqueous barrier result is “caused breakdown of the blood-aqueous barrier” and the “effect on IOP” value is listed as “increase in IOP”.
`CC[C@@H](CO)NC(=O)[C@@H]1C=C2c3cccc4c3c(cn4C)C[C@H]2N(C)C1` [Methysergide]: the “effect on IOP” value in data set [2] (rabbits, route not stated) is listed as “lowered IOP”.
Consider `c1ccc2c(c1)OC[C@H](CNCCCOc1ccc3c(c1)OCO3)O2` [MKC-242], for which the “effect on IOP” value in data set [2] (rabbits, route not stated) is “lower IOP”.
With `CNCCC(Oc1ccc(C(F)(F)F)cc1)c1ccccc1` (stereo not shown) [fluoxetine], in data set [1] (human subjects, oral administration), the “effect on IOP” value is “raises IOP”.
For `COc1cccc(CCc2ccccc2OCC(CN(C)C)OC(=O)CCC(=O)O)c1` (stereo not shown) [Saprogrelate], the “effect on IOP” value in data set [1] (man, dosed topically or orally) is given as “lowers IOP”; in data set [2] (rabbits, dosed topically or orally) it was “lowers IOP”.
Take `COc1ccc2[nH]cc(CC(C)N)c2c1` (stereo not drawn) [5-Methoxy-α-methyltryptamine, 5-methoxy-α-methyltryptamine]: in data set [3], the “Percent IOP Reduction ± SEM, 1 hour after dose” value was found to be 21.6 ± 5.05%; the “Percent IOP Reduction ± SEM, 3 hours after dose” value is on record as 35.2 ± 6.12%; the “Percent IOP Reduction ± SEM, 6 hours after dose” value is given as 33.4 ± 5.39%. Moreover, the Emax (usually the greatest response seen or fitted, relative to the assay's reference) in data set [4] (A7R5, read-out: Efficacy (Emax, %)) is 107%.
In the case of `CC(N)Cc1c[nH]c2ccc(O)cc12` (stereo not drawn) [α-Methylserotonin, α-methyl-serotonin], in data set [3], the “Percent IOP Reduction ± SEM, 1 hour after dose” value stood at 14.2 ± 4.39%; the “Percent IOP Reduction ± SEM, 3 hours after dose” value is recorded as 25.8 ± 5.16%; the “Percent IOP Reduction ± SEM, 6 hours after dose” value was 30.8 ± 7.72%. Moreover, in data set [7], the receptor subtype selectivity was 5HT2B>5HT2C>5HT2A.
In the case of `CCCN(CCC)C1CCc2cccc(O)c2C1` (stereo not shown) [8-hydroxy DPAT], the “effect on IOP” value in data set [2] (rabbits, route not stated) is listed as “lower IOP”.
